# According to patent US9738655B2, “Tetrahydroisoquinolines containing substituted azoles as factor XIa inhibitors” (BRISTOL-MYERS SQUIBB COMPANY, priority 2013, dated 2017):
# Counter-ions that a name gives are not always drawn.
# Biological target: purified human Factor XIa (Homo sapiens (Human), UniProt P03951)
# Test: Factor XIa enzyme inhibition assay (chromogenic substrate S-2366)
# Details: read-out: Factor XIa Ki; measured at 25° C.
# Chain of purified human Factor XIa (P03951 388-625): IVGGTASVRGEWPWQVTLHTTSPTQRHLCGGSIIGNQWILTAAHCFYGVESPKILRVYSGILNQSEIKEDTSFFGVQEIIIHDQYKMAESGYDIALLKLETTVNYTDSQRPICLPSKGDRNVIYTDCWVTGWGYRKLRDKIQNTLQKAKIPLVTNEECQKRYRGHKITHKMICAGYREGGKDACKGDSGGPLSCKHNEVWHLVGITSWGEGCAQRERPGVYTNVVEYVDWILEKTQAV
# Chain of purified human Factor XIa (P03951 19-387 partner): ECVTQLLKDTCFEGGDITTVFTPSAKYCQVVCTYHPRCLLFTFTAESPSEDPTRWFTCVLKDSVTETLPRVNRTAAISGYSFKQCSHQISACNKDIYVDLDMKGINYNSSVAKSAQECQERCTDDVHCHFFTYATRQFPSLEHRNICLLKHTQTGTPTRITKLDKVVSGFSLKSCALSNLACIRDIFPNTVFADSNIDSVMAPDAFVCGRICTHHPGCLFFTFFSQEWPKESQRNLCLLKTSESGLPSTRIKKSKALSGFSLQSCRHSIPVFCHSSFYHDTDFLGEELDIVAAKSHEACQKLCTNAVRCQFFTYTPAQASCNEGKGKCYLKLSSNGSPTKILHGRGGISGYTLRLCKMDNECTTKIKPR
row,Compound,Ki [nM]
1,"Cc1nnc(-c2cccc(-c3cccc4c3CCN(C(=O)c3cn(-c5cccc(Cl)c5F)nn3)C4C(=O)Nc3ccc(C(=O)O)cc3)c2)o1 (stereo not shown) [Example 171, 4-(2-(1-(3-chloro-2-fluorophenyl)-1H-1,2,3-triazole-4-carbonyl)-5-(3-(5-methyl-1,3,4-oxadiazol-2-yl)phenyl)-1,2,3,4-tetrahydroisoquinoline-1-carboxamido)benzoic acid]",< 5
2,"CN(C)c1ccc(-c2cccc3c2CCN(C(=O)c2cn(-c4cccc(Cl)c4F)nn2)C3C(=O)Nc2ccc(C(=O)O)cc2)cn1 (stereo not shown) [Example 172, 4-(2-(1-(3-chloro-2-fluorophenyl)-1H-1,2,3-triazole-4-carbonyl)-5-(6-(dimethylamino)pyridin-3-yl)-1,2,3,4-tetrahydroisoquinoline-1-carboxamido)benzoic acid]",< 5
3,"O=C(O)c1ccc(NC(=O)C2c3cccc(-c4ccc(S(=O)(=O)NC5CC5)cc4)c3CCN2C(=O)c2cn(-c3cccc(Cl)c3F)nn2)cc1 (stereo not shown) [Example 176, 4-(2-(1-(3-chloro-2-fluorophenyl)-1H-1,2,3-triazole-4-carbonyl)-5-(4-(N-cyclopropylsulfamoyl)phenyl)-1,2,3,4-tetrahydroisoquinoline-1-carboxamido)benzoic acid]",< 5
4,"CN(C)S(=O)(=O)c1cccc(-c2cccc3c2CCN(C(=O)c2cn(-c4cccc(Cl)c4F)nn2)C3C(=O)Nc2ccc(C(=O)O)cc2)c1 (stereo not shown) [Example 177, 4-(2-(1-(3-chloro-2-fluorophenyl)-1H-1,2,3-triazole-4-carbonyl)-5-(3-(N,N-dimethylsulfamoyl)phenyl)-1,2,3,4-tetrahydroisoquinoline-1-carboxamido)benzoic acid]",< 5
5,"CCOc1ccc(-c2cccc3c2CCN(C(=O)c2cn(-c4cccc(Cl)c4F)nn2)C3C(=O)Nc2ccc(C(=O)O)cc2)cn1 (stereo not shown) [Example 178, 4-(2-(1-(3-chloro-2-fluorophenyl)-1H-1,2,3-triazole-4-carbonyl)-5-(6-ethoxypyridin-3-yl)-1,2,3,4-tetrahydroisoquinoline-1-carboxamido)benzoic acid, TFA salt]",< 5
6,"O=C(O)c1ccc(NC(=O)C2c3cccc(-c4ccccc4CN4CCOCC4)c3CCN2C(=O)c2cn(-c3cccc(Cl)c3F)nn2)cc1 (stereo not shown) [Example 179, 4-(2-(1-(3-chloro-2-fluorophenyl)-1H-1,2,3-triazole-4-carbonyl)-5-(2-(morpholinomethyl)phenyl)-1,2,3,4-tetrahydroisoquinoline-1-carboxamido)benzoic acid, TFA salt]",5.92

# Continued, values first:
row,Ki [nM],Compound
1,< 5,"Cn1ncc2ccc(-c3cccc4c3CCN(C(=O)c3cn(-c5cccc(Cl)c5F)nn3)C4C(=O)Nc3ccc(C(=O)O)cc3)cc21 (stereo not shown) [Example 170, 4-(2-(1-(3-chloro-2-fluorophenyl)-1H-1,2,3-triazole-4-carbonyl)-5-(1-methyl-1H-indazol-6-yl)-1,2,3,4-tetrahydroisoquinoline-1-carboxamido)benzoic acid]"
2,< 5,"NCc1cccc(-c2cccc3c2CCN(C(=O)c2cn(-c4cccc(Cl)c4F)nn2)C3C(=O)Nc2ccc(C(=O)O)cc2)c1 (stereo not shown) [Example 173, 4-(5-(3-(aminomethyl)phenyl)-2-(1-(3-chloro-2-fluorophenyl)-1H-1,2,3-triazole-4-carbonyl)-1,2,3,4-tetrahydroisoquinoline-1-carboxamido)benzoic acid, TFA salt]"
3,< 5,"O=C(O)c1ccc(NC(=O)C2c3cccc(-c4ccc5nccnc5c4)c3CCN2C(=O)c2cn(-c3cccc(Cl)c3F)nn2)cc1 (stereo not shown) [Example 174, 4-(2-(1-(3-chloro-2-fluorophenyl)-1H-1,2,3-triazole-4-carbonyl)-5-(quinoxalin-6-yl)-1,2,3,4-tetrahydroisoquinoline-1-carboxamido)benzoic acid]"
4,< 5,"O=C(O)c1ccc(NC(=O)C2c3cccc(-c4ccc5occc(=O)c5c4)c3CCN2C(=O)c2cn(-c3cccc(Cl)c3F)nn2)cc1 (stereo not shown) [Example 175, 4-(2-(1-(3-chloro-2-fluorophenyl)-1H-1,2,3-triazole-4-carbonyl)-5-(4-oxo-4H-chromen-6-yl)-1,2,3,4-tetrahydroisoquinoline-1-carboxamido)benzoic acid]"
